Where two headings read alike, the source gives them in different places.
Key:
[1] = Compound cytotoxicity on uninfected CEM-SS cells (MTS); type: cell-based; conditions: human, read-out: TC50 (concentration resulting in 50% cell death)
Protocol: (§1) Briefly, virus and cells were mixed in the presence of a test compounds and incubated for 6 days. […] Each assay plate contained the following controls: cell control wells (cells only), virus control wells (cells plus virus), compound toxicity control wells (cells plus compound only), compound colorimetric control wells (compound only), as well as the experimental wells (compound plus cells plus virus). Cytoprotection and compound cytotoxicity were assessed by MTS (CellTiter® 96 Reagent, Promega, Madison Wis.) dye reduction, and the IC50 (concentration inhibiting virus replication by 50%), TC50 (concentration resulting in 50% cell death) and a calculated T1 (therapeutic index TC50/IC50) were obtained. Each assay included the HIV reverse transcriptase inhibitor AZT as a positive control.

[2] = test system: HIV-1IIIB; assay: HIV cytoprotection assay, CEM-SS cells infected with HIV-1IIIB (MTS); type: cell-based; conditions: for IC50: read-out: IC50 (concentration inhibiting virus replication by 50%)
Protocol: (§2) For the HIV cytoprotection assay, CEM-SS cells were used and the viruses HIV-1IIIB, HIV-1RF, or HIV-2ROD.
as §1

[3] = test system: HIV-1; assay: Assay for virus release (HIV-1 p24 / VLP release) in Jurkat cells transfected with pNLenv1; type: cell-based; conditions: Human immunodeficiency virus 1, 24 h, VLP release one day after transfection, anti-CA immunoblot
Protocol: The POSH inhibitor Compound 1 was tested for its efficiency of viral budding and GAG expression and processing in treated and untreated Jurkat cells. The concentration of extracellular GAG p24 was used as an indication of viral budding.
Jurkat cells were incubated with Compound 1 for either 1 or 3 days. The next day, cells were transfected with the plasmid pNLenv1 (2 μg/ml). Virus-like particle (VLP) release was determined one day after transfection as follows: the culture medium of virus-expressing cells was collected and centrifuged at 500×g for 10 minutes. The resulting supernatant was passed through a 0.45 μm-pore filter and the filtrate was centrifuged at 14,000×g for 2 hours at 4° C. The corresponding cells were washed three times with phosphate-buffered saline (PBS) and then solubilized by incubation on ice for 15 minutes in lysis buffer containing the following components: 50 mM Hepes-NaOH, (pH 7.5), 150 mM NaCl, 1.5 mM MgCl2, 0.5% NP-40, 0.5% sodium deoxycholate, 1 mM EDTA, 1 mM EGTA and 1:200 dilution of protease inhibitor cocktail (EMD Biosciences, Inc.). […] The CA was detected after incubation with a secondary anti-rabbit horseradish peroxidase-conjugated antibody, and detected by Enhanced Chemi-Luminescence (ECL) (Amersham Biosciences, Corp.) and detected by fluorescence imaging (Typhoon Instrument, Amersham Biosciences, Corp.). […]

[4] = molecular target: T1, hPOSH (Homo sapiens, UniProt Q7Z6J0); assay: HTS TR-FRET assay of POSH autoubiquitination; type: biochemical; conditions: in vitro TR-FRET, GST tagged hPOSH with E1 and UbcH5c; read-out: IC50, inhibition of POSH autoubiquitination
T1 construct: a fused GST-RING subunit of POSH protein and two fluorophore-conjugated detection reagents
T1 sequence (Q7Z6J0 12-53 limits assumed): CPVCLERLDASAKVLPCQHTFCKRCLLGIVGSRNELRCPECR
Protocol: In order to test compounds as inhibitors of POSH, a ubiquitin protein ligase (E3) containing a RING domain that mediates its own ubiquitination in a RING finger-dependent manner in the presence of E1 and E2, a HTS (high-throughput screening) homogeneous TR-FRET (Time-Resolved Fluorescence Resonance Energy Transfer) assay was conducted to monitor POSH autoubiquitination.
The assay employs an ubiquitin-activating enzyme (E1) and an ubiquitin-conjugating enzyme (E2), a fused GST-RING subunit of POSH protein and two fluorophore-conjugated detection reagents, namely anti-GSTXL665 and europium cryptate-labeled ubiquitin. This homogeneous assay is based on FRET between a Eu^3+ cryptate donor and a second fluorescent label (acceptor), allophycocyanin. Allophycocyanin, a 105 kDa phycobiliprotein, is crosslinked to ensure its stability.
The ubiquitination of POSH by ubiquitin cryptate and binding of the anti-GST tagged XL665 brings the fluorophores into close proximity allowing FRET reaction to occur (see diagram).
Self-ubiquitination of hPOSH was determined by homogenous time-resolved fluorescence resonance energy transfer assay (TR-FRET). […]
where: S=actual fluorescence, B=Fluorescence obtained in parallel incubation without cb1-b, C=Fluorescence obtained in reaction without added compounds. […]

[5] = test system: HIV-2ROD; assay: HIV cytoprotection assay, CEM-SS cells infected with HIV-2ROD (MTS); type: cell-based
Protocol: as §2, §1

Compound | CC50 at 6 days ([1]; Table 1 (HIV-1IIIB experiment)) [µM] | Antiviral Index (TI), TC50/IC50 ([2]; HIV-1IIIB, CEM-SS cells) | IC50 ([2]; Human immunodeficiency virus 1, CEM-SS, 144 h) [µM] | IC50 [3] [µM] | IC50 [4] [µM] | CC50 at 6 days ([1]; Table 2 (HIV-2ROD experiment)) [µM] | IC50 ([2]; Human immunodeficiency virus 1, 144 h, HIV-1IIIB, CEM-SS cells, 6 days) [µM] | Antiviral Index (TI), TC50/IC50 [5] | IC50 ([5]; Human immunodeficiency virus 2, 144 h, 6 days, read-out: IC50 (concentration inhibiting virus replication by 50%)) [µM]
Cc1cc(C)nc(NS(=O)(=O)c2cc(Cl)ccc2Cl)n1 [Compound 1, 2,5-dichloro-N-(4,6-dimethylpyrimidin-2-yl)benzenesulfonamide] | > 100 | >1.61 | 62 | 100 | 12 |  |  |  | 
Cc1cc(C)nc(NS(=O)(=O)c2cc(Cl)ccc2Cl)c1 [Compound 2, 2,5-dichloro-N-(4,6-dimethylpyridin-2-yl)benzenesulfonamide] | 114 | 28.5 |  |  |  | 169 | 3.99 | 3.80 | 44.4

— patent US20120015967A1, “PYRIMIDINE AND PYRIDINE DERIVATIVES AS POSH AND POSH-AP INHIBITORS” (PROTEOLOGICS, LTD., priority 2007, published 2012)
